The results in this text go back to patent US20230210864A1, “AGENT FOR PROMOTING CORNEAL ENDOTHELIAL CELL ADHESION” (Senju Pharmaceutical Co., Ltd., priority 2007, published 2023).

Molecules are shown by their SMILES.

This assay has as its system monkey corneal endothelial cells. Kind of assay: Adhesion of cultured monkey corneal endothelial cells with fasudil, CellTiter-Glo Luminescent Cell Viability Assay. As to conditions: fasudil 10 μM, passage-cultured cells. The assay is classed as cell-based, Macaca fascicularis. The method, then:
From the corneal tissue isolated from Macaca fascicularis euthanized, Descemet's membrane with corneal endothelial cells attached thereto was separated. The Descemet's membrane was incubated together with Dispase II (1.2 U/ml, Roche Applied Science) under the conditions of 37° C., 5% CO2 for 45 min, and the corneal endothelial cells were mechanically separated by a pipetting operation. The separated corneal endothelial cells were centrifuged and passage-cultured in a medium for corneal endothelium. As the medium for corneal endothelium, the same cell culture medium as in Example 1 was used. The cultured monkey corneal endothelial cells collected during the passage culture by a 0.05% trypsin treatment were separated and centrifuged, and stirred to the same concentration in a medium for corneal endothelium added with fasudil (10 μM, SIGMA-ALDRICH) in the fasudil group and in a medium for corneal endothelium without addition of fasudil in the control group, and the cells were seeded on a 96 well plate at a density of about 2000 cells per well. At 24 hr from the start of the culture, the adhered cells were counted using CellTiter-Glo (registered trade mark) Luminescent Cell Viability Assay (Promega) (FIG. 17).

For the molecule `O=S(=O)(c1cccc2cnccc12)N1CCCNCC1` [fasudil, 1-(5-isoquinolinesulfonyl)homopiperazine], the “cell adhesion of corneal endothelial cells at 24 hr, compared to control group” value was “effect of promoted cell adhesion of the corneal endothelial cells was also found”.
